Test results reported in ChEMBL document CHEMBL1131047, “Novel nonnucleoside inhibitors of HIV-1 reverse transcriptase. 7. 8-Arylethyldipyridodiazepinones as potent broad-spectrum inhibitors of wild-type and mutant enzymes” (J Med Chem, 1998).

Key:
[1] = target: Human immunodeficiency virus type 1 reverse transcriptase (Human immunodeficiency virus 1, UniProt Q72547); experiment: Inhibitory activity against HIV-1 wild-type reverse transcriptase.
[2] = target: Human immunodeficiency virus type 1 reverse transcriptase (Human immunodeficiency virus 1, UniProt Q72547, Y181C); experiment: Inhibitory activity against HIV-1 Y181C reverse transcriptase.
[3] = target: Human immunodeficiency virus type 1 reverse transcriptase (Human immunodeficiency virus 1, UniProt Q72547, Y188L); experiment: Inhibitory activity against HIV-1 Y188L reverse transcriptase.
[4] = system: C8166; experiment: Inhibitory activity against HIV-1 IIIB replication in C8166 cells.; format: functional, cell-based; conditions: Homo sapiens
[5] = target: Human immunodeficiency virus type 1 reverse transcriptase (Human immunodeficiency virus 1, UniProt Q72547, P236L); experiment: Inhibitory activity against HIV-1 Mutant Reverse transcriptase P236L
[6] = target: Human immunodeficiency virus type 1 reverse transcriptase (Human immunodeficiency virus 1, UniProt Q72547, K103N); experiment: Inhibitory activity against HIV-1 Mutant Reverse transcriptase K103N
[7] = target: Human immunodeficiency virus type 1 reverse transcriptase (Human immunodeficiency virus 1, UniProt Q72547, V106A); experiment: Inhibitory activity against HIV-1 Mutant Reverse transcriptase V106A
[8] = target: Human immunodeficiency virus type 1 reverse transcriptase (Human immunodeficiency virus 1, UniProt Q72547, G190A); experiment: Inhibitory activity against HIV-1 Mutant Reverse transcriptase G190A

Structure (SMILES): CCN1c2ncc(C(=O)O)cc2C(=O)N(C)c2cccnc21
- IC50 [1]: > 1000 nM

Structure (SMILES): CCN1c2ncc(CCc3ccc4ccccc4c3)cc2C(=O)N(C)c2ccc(F)nc21
- IC50 [2]: 30 nM
- IC50 [1]: 20 nM
- IC50 [3]: > 1000 nM

Structure (SMILES): CCN1c2ncc(CCc3cncnc3)cc2C(=O)N(C)c2cccnc21
- IC50 [2]: > 1000 nM
- IC50 [1]: 540 nM
- IC50 [3]: > 1000 nM

Structure (SMILES): CCN1c2ncc(CCc3ccccc3C)cc2C(=O)N(C)c2ccc(Cl)nc21
- IC50 [2]: > 1000 nM
- IC50 [1]: > 1000 nM
- IC50 [3]: > 1000 nM

Structure (SMILES): CCN1c2ncc(CCCO)cc2C(=O)N(C)c2cccnc21
- IC50 [2]: 2900 nM
- IC50 [1]: 300 nM

Structure (SMILES): CCN1c2ncc(/C=C/c3ccncc3)cc2C(=O)N(C)c2cccnc21
- IC50 [2]: > 1000 nM
- IC50 [1]: 3000 nM

Structure (SMILES): CCN1c2ncc(CCc3ccncc3)cc2C(=O)N(C)c2ccc(Cl)nc21
- IC50 [4]: 9 nM

Structure (SMILES): CCN1c2ncc(CCc3ccc(NS(C)(=O)=O)cc3)cc2C(=O)N(C)c2ccc(Cl)nc21
- IC50 [2]: 560 nM
- IC50 [1]: 330 nM
- IC50 [3]: > 1000 nM

Structure (SMILES): CCN1c2ncc(CCC#N)cc2C(=O)N(C)c2cccnc21
- IC50 [2]: 2160 nM
- IC50 [1]: 210 nM

Structure (SMILES): CCN1c2ncc(CCc3ccccc3)cc2C(=O)N(C)c2ccc(C3=CCC=N3)nc21
- IC50 [2]: 520 nM
- IC50 [1]: 590 nM
- IC50 [3]: 1280 nM

Structure (SMILES): CCN1c2ncc(CCc3ccccn3)cc2C(=O)N(C)c2cccnc21
- IC50 [2]: > 1000 nM
- IC50 [1]: 190 nM
- IC50 [3]: > 1000 nM

Structure (SMILES): CCN1c2ncc(CCc3ccc(C)cc3)cc2C(=O)N(C)c2ccc(Cl)nc21
- IC50 [2]: 1180 nM
- IC50 [1]: 230 nM
- IC50 [3]: > 1000 nM

Structure (SMILES): CCN1c2ncc(CCC(N)=O)cc2C(=O)N(C)c2cccnc21
- IC50 [2]: 6100 nM
- IC50 [1]: 620 nM

Structure (SMILES): CCN1c2ncc(CCc3ccncc3)cc2C(=O)N(C)c2ccc(C#N)nc21
- IC50 [2]: 290 nM
- IC50 [1]: 460 nM
- IC50 [3]: > 1000 nM

Structure (SMILES): CCN1c2ncc(CCc3ccnc(C(=O)OC)c3)cc2C(=O)N(C)c2ccc(Cl)nc21
- IC50 [2]: 480 nM
- IC50 [1]: 150 nM
- IC50 [3]: 6000 nM

Structure (SMILES): CCN1c2ncc(CCc3cccc(N)c3)cc2C(=O)N(C)c2ccc(Cl)nc21
- IC50 [5]: 40 nM
- IC50 [2]: 230 nM
- IC50 [6]: 10 nM
- IC50 [7]: 90 nM
- IC50 [1]: 120 nM
- IC50 [3]: 250 nM
- IC50 [8]: 10 nM

Structure (SMILES): CCN1c2ncc(CCc3ccnc(C)c3)cc2C(=O)N(C)c2cccnc21
- IC50 [2]: 90 nM
- IC50 [1]: 30 nM
- IC50 [3]: > 1000 nM

Structure (SMILES): CCN1c2ncc(CCc3ccccc3)cc2C(=O)N(C)c2cccnc21
- IC50 [2]: 130 nM
- IC50 [1]: 50 nM

Structure (SMILES): CCN1c2ncc(CCc3ccccc3C)cc2C(=O)N(C)c2cccnc21
- IC50 [2]: 1600 nM
- IC50 [1]: 200 nM
- IC50 [3]: > 1000 nM

Structure (SMILES): CCN1c2ncc(CCc3cccc(F)c3)cc2C(=O)N(C)c2cccnc21
- IC50 [2]: 370 nM
- IC50 [1]: 120 nM
- IC50 [3]: > 1000 nM

Structure (SMILES): CCN1c2ncc(Cl)cc2C(=O)N(C)c2cccnc21
- IC50 [2]: > 1000 nM
- IC50 [1]: 540 nM

Structure (SMILES): CCN1c2ncc(CCc3ccnc(C(=O)O)c3)cc2C(=O)N(C)c2ccc(Cl)nc21
- IC50 [2]: 3800 nM
- IC50 [1]: 1500 nM
- IC50 [3]: > 1000 nM

Structure (SMILES): CCN1c2ncc(N)cc2C(=O)N(C)c2cccnc21
- IC50 [1]: 100 nM

Structure (SMILES): CCN1c2ncc(CCc3ccnc(CO)c3)cc2C(=O)N(C)c2ccc(Cl)nc21
- IC50 [2]: 280 nM
- IC50 [1]: 160 nM
- IC50 [3]: > 1000 nM

Structure (SMILES): CCN1c2ncc(CCc3ccncc3)cc2C(=O)N(C)c2cccnc21
- IC50 [2]: 110 nM
- IC50 [1]: 30 nM
- IC50 [4]: 25 nM
- IC50 [3]: > 1000 nM

Structure (SMILES): CCN1c2ncc(CCCc3ccccc3)cc2C(=O)N(C)c2cccnc21
- IC50 [2]: 1170 nM
- IC50 [1]: 120 nM

Structure (SMILES): CCN1c2ncc(CCC(=O)OC)cc2C(=O)N(C)c2cccnc21
- IC50 [2]: 140 nM
- IC50 [1]: 90 nM

Structure (SMILES): CCN1c2ncc(CCc3ccc4ccccc4c3)cc2C(=O)N(C)c2cccnc21
- IC50 [2]: 150 nM
- IC50 [1]: 80 nM
- IC50 [3]: > 1000 nM

Structure (SMILES): CCN1c2ncc(CCc3cccnc3)cc2C(=O)N(C)c2cccnc21
- IC50 [2]: 320 nM
- IC50 [1]: 130 nM
- IC50 [3]: > 1000 nM

Structure (SMILES): CCN1c2ncc(CCc3nccs3)cc2C(=O)N(C)c2cccnc21
- IC50 [2]: 440 nM
- IC50 [1]: 40 nM
- IC50 [3]: > 1000 nM

Structure (SMILES): CCN1c2ncc(CCc3cccc(C)c3)cc2C(=O)N(C)c2ccc(Cl)nc21
- IC50 [2]: 460 nM
- IC50 [1]: 110 nM
- IC50 [3]: > 1000 nM

Structure (SMILES): CCN1c2ncc(-c3cccc(OC)c3)cc2C(=O)N(C)c2cccnc21
- IC50 [2]: > 1000 nM
- IC50 [1]: > 1000 nM

Structure (SMILES): CCN1c2ncc(CCc3ccc(N)cc3)cc2C(=O)N(C)c2ccc(Cl)nc21
- IC50 [2]: 360 nM
- IC50 [1]: 160 nM
- IC50 [3]: > 1000 nM

Structure (SMILES): CCN1c2ncc(CCc3ccccc3N)cc2C(=O)N(C)c2cccnc21
- IC50 [2]: 1700 nM
- IC50 [1]: 80 nM
- IC50 [3]: > 1000 nM

Structure (SMILES): CCN1c2ncc(C)cc2C(=O)N(C)c2cccnc21
- IC50 [2]: > 1000 nM
- IC50 [1]: 750 nM

Structure (SMILES): CCN1c2ncc(Cc3ccccc3)cc2C(=O)N(C)c2cccnc21
- IC50 [2]: 1200 nM
- IC50 [1]: 120 nM

Structure (SMILES): CCN1c2ncccc2C(=O)N(C)c2cccnc21
- IC50 [1]: 90 nM

Structure (SMILES): CCN1c2ncc(CCc3cccc(NS(C)(=O)=O)c3)cc2C(=O)N(C)c2ccc(Cl)nc21
- IC50 [2]: 140 nM
- IC50 [1]: 140 nM
- IC50 [3]: > 1000 nM

Structure (SMILES): CCN1c2ncc(/C=C/C(=O)OC)cc2C(=O)N(C)c2cccnc21
- IC50 [1]: > 1000 nM

Structure (SMILES): CCN1c2ncc(CCc3ccc(C)cc3)cc2C(=O)N(C)c2cccnc21
- IC50 [2]: 250 nM
- IC50 [1]: 100 nM
- IC50 [3]: > 1000 nM

Structure (SMILES): CCN1c2ncc(CCc3cccc(N)c3)cc2C(=O)N(C)c2cccnc21
- IC50 [2]: 70 nM
- IC50 [1]: 40 nM
- IC50 [3]: > 1000 nM

Structure (SMILES): CCN1c2ncc(CCc3cccc(C)c3)cc2C(=O)N(C)c2cccnc21
- IC50 [2]: 280 nM
- IC50 [1]: 110 nM
- IC50 [3]: > 1000 nM

Structure (SMILES): CCN1c2ncc(CCO)cc2C(=O)N(C)c2cccnc21
- IC50 [2]: 2500 nM
- IC50 [1]: 430 nM

Structure (SMILES): CCN1c2ncc(CCc3ccc4ccccc4c3)cc2C(=O)N(C)c2ccc(Cl)nc21
- IC50 [2]: 2880 nM
- IC50 [1]: 1020 nM
- IC50 [3]: > 1000 nM

Structure (SMILES): CCN1c2ncc(CCc3ccncc3)cc2C(=O)N(C)c2ccc(I)nc21
- IC50 [2]: 180 nM
- IC50 [1]: 90 nM
- IC50 [3]: 430 nM

Structure (SMILES): CCN1c2ncc(/C=C\c3ccccc3)cc2C(=O)N(C)c2cccnc21
- IC50 [2]: 580 nM
- IC50 [1]: 250 nM

Structure (SMILES): CCN1c2ncc(CCc3cccc(N=[N+]=[N-])c3)cc2C(=O)N(C)c2ccc(Cl)nc21
- IC50 [2]: 160 nM
- IC50 [1]: 80 nM
- IC50 [3]: > 1000 nM

Structure (SMILES): CCN1c2ncc(CCc3ccccc3)cc2C(=O)N(C)c2ccc(Cl)nc21
- IC50 [4]: 12 nM

Structure (SMILES): CCN1c2ncc(CCc3ccc(N)cc3)cc2C(=O)N(C)c2cccnc21
- IC50 [2]: 200 nM
- IC50 [1]: 60 nM
- IC50 [3]: > 1000 nM

Structure (SMILES): CCN1c2ncc(CCc3cccc(NC(N)=O)c3)cc2C(=O)N(C)c2ccc(Cl)nc21
- IC50 [2]: 80 nM
- IC50 [1]: 60 nM
- IC50 [4]: 39 nM
- IC50 [3]: 230 nM

Structure (SMILES): CCN1c2ncc(CO)cc2C(=O)N(C)c2cccnc21
- IC50 [2]: 740 nM
- IC50 [1]: 50 nM

Structure (SMILES): CCN1c2ncc(CCc3ccnc(C(N)=O)c3)cc2C(=O)N(C)c2ccc(Cl)nc21
- IC50 [2]: 250 nM
- IC50 [1]: 50 nM
- IC50 [3]: 4000 nM

Structure (SMILES): CCN1c2ncc(CCc3ccnc(C)c3)cc2C(=O)N(C)c2ccc(Cl)nc21
- IC50 [2]: 140 nM
- IC50 [1]: 60 nM
- IC50 [3]: > 1000 nM

Structure (SMILES): CCN1c2ncc(CCc3ccncc3)cc2C(=O)N(C)c2ccc(F)nc21
- IC50 [5]: 50 nM
- IC50 [2]: 80 nM
- IC50 [6]: 20 nM
- IC50 [7]: 250 nM
- IC50 [1]: 50 nM
- IC50 [3]: 250 nM
- IC50 [8]: 60 nM

Structure (SMILES): CCN1c2ncc(NC(N)=O)cc2C(=O)N(C)c2cccnc21
- IC50 [1]: 1100 nM
